Earlier results on one molecule are cited in publication PMC12251151, “Understanding Anti-Obesity Potential of Four Porphyrin Compounds by Investigating Pancreatic Lipase Inhibition” (Molecules, 2025).

The target in data set [1] is α-amylase. On the set-up: method as in PMID 36603279. The settings on record: read-out: IC50 inhibiting α-amylase; cited from earlier work.
Data set [2] has as its target α-glucosidase. On the set-up: method as in PMID 36603279. The settings on record: read-out: IC50 inhibiting α-glucosidase; cited from earlier work.

The IC50 is the concentration that gives 50% inhibition. Turning to `COc1ccc([C@@H]2CC(=O)c3c(O)cc(O)cc3O2)cc1O` [Hsp, hesperetin], the IC50 in data set [1] is 115.6 ± 1.1 µM; in data set [2], 55.2 ± 0.1 µM.
